For series [1] the following is noted: cited from earlier work; for m: dipole moment; for mp: dipole moment of non-solvent.
The conditions of series [2]: cited from earlier work.
Series [3] is described as follows: Hansen's method for solubility parameters and interaction distance r relative to polyaniline base. The conditions noted are these: for r: Table 5, interaction distance to polyaniline base (17.4, 8.5, 10.4).
Source text: When multiple literature source were found with widely differing values, those sets of values were taken which were the closest to those theoretically predicted for the given solvent.
Series [4] can be described thus: Solvent test with undoped (neutralized) polyaniline (Example 8). In kind it is physicochemical. As to conditions: polyaniline synthesized as in Example 1, undoped with aqueous sodium carbonate. On the procedure:
A series of potential solvents with significant polar and hydrogen bonding contributions were tested with polyaniline which had been synthesized as in Example 1 and then undoped (neutralized) by treatment with an aqueous solution of sodium carbonate.

Setting [5] is: Table 5, Hansen parameter of the liquid.
Where [6] appears, read: Table 4, Hildebrand (solubility) parameter.
[7] abbreviates: Table 6, second half, Hansen parameter of non-solvent.
[8] abbreviates: Table 6, Hansen parameter of non-solvent.
The mark [9] stands for this setting: Table 6, Hildebrand parameter of non-solvent.
The mark [10] stands for this setting: Table 4, dielectric constant relative to permittivity of free space.
Where [11] appears, read: Table 4, relative sound velocity in paper wetted by the solvent (water = 100), hydrogen bonding capability.

Like-named read-outs stand apart in the source and are kept apart here.

For orientation: pKa means the negative logarithm of the acid dissociation constant.

Turning to `CN(C)N` [1,1-dimethylhydrazine], the d in series [1] (Table 7, Hildebrand Parameter) is on record as 19.8 MPa.

Turning to `Cc1ccccn1` [2-picoline], the e in series [1] (Table 7, Dielectric Constant) was 9.8. Further, in series [1] (Table 7, Hildebrand Parameter), the d is 20.9 MPa.

Consider `O=C1CCCN1` [2-pyrrolidone], for which, in series [2] (setting [5]), the dd is on record as 19.4 MPa, the dh is given as 11.3 MPa and the dp is given as 17.4 MPa. Moreover, in series [1] (setting [6]), the d is recorded as 28.4 MPa. Moreover, the m in series [1] (Table 4) is recorded as 7.7 10^-30 Cm. Moreover, the d in series [1] (Table 7, Hildebrand Parameter) is 28.4 MPa. Besides, the r in series [3] worked out at 99.8.

Take `CCCCc1ccc(N)cc1` [4-Butylaniline]: in series [2] (setting [7]), the dh is 6.6 MPa and the dp was 9.1 MPa. Also, the dd in series [2] (setting [8]) was 16.9 MPa. For the same compound, in series [1] (setting [9]), the d is on record as 20.4 MPa.

Regarding `CN(C)C=O` [Dimethylformamide], in series [2] (setting [5]), the dd was 17.4 MPa, the dh is given as 11.3 MPa and the dp is reported as 13.7 MPa. In addition, the e in series [1] (setting [10]) is 37.0. Further, in series [1] (Table 4), the m is recorded as 11.2 10^-30 Cm. In addition, the gw in series [1] (setting [11]) is given as 68.0.

With `CNNC` [Dimethylhydrazine], in series [2] (setting [5]), the dd was 15.3 MPa, the dh is 11.0 MPa and the dp was 5.9 MPa. Further, in series [1] (setting [6]), the d was 19.8 MPa. The r in series [3] worked out at 5.0.

`CCNc1ccccc1` [N-Ethylaniline]: in series [2] (setting [7]), the dh was 7.7 MPa and the dp is 10.5 MPa. For the same compound, in series [2] (setting [8]), the dd is 17.1 MPa. In addition, in series [1] (setting [9]), the d was 21.5 MPa.

Consider `CN1CCCC1=O` [N-methyl-2-pyrrolidone], for which the “solvent for undoped polyaniline” value in series [4] is reported as “solvent”. Besides, in series [2] (setting [5]), the dd is on record as 16.5 MPa, the dh is 13.5 MPa and the dp is listed as 10.4 MPa. Besides, the d in series [1] (setting [6]) was 23.7 MPa. Also, the e in series [1] (setting [10]) is given as 32.0.

`Cc1ccccn1` [Picoline]: in series [2] (setting [5]), the dd was 18.2 MPa, the dh is reported as 6.8 MPa and the dp is given as 7.8 MPa. For the same compound, in series [1] (setting [6]), the d is 20.9 MPa. In addition, the e in series [1] (setting [10]) is reported as 9.8. For the same compound, the m in series [1] (Table 4) is reported as 6.3 10^-30 Cm. This compound came in with a r in series [3] of 4.0.

Take `Nc1ccccc1` [aniline]: in series [2] (setting [5]), the dd is listed as 19.4 MPa, the dh is listed as 10.0 MPa and the dp is 5.1 MPa. In series [1] (setting [6]), the d was 22.6 MPa. In series [1] (setting [10]), the e was 6.9. The m in series [1] (Table 4) is on record as 5.0 10^-30 Cm. The gw in series [1] (setting [11]) was 94.0. This compound also returned a r in series [3] of 5.3.

With `NCc1ccccc1` [benzylamine], in series [1] (Table 7), the pKa is 9.3.

Regarding `CCCCN` [butylamine], in series [2] (setting [5]), the dd is on record as 13.6 MPa, the dh is on record as 8.0 MPa and the dp is 8.1 MPa. In addition, the d in series [1] (setting [6]) is reported as 18.6 MPa. In addition, the e in series [1] (setting [10]) is reported as 5.3. For the same compound, the m in series [1] (Table 4) is 4.7 10^-30 Cm. The e in series [1] (Table 7, Dielectric Constant) is 5.3. Further, the d in series [1] (Table 7, Hildebrand Parameter) is listed as 17.7 MPa. In addition, the pKa in series [1] (Table 7) is 10.8.

For the compound `CC(C)NC(C)C` [diisopropylamine], in series [2] (setting [7]), the dh is reported as 2.0 MPa and the dp is recorded as 6.2 MPa. Moreover, the dd in series [2] (setting [8]) was 13.8 MPa. For the same compound, the d in series [1] (setting [9]) is 15.2 MPa. In series [3] (Table 6, second half, Hansen Method), the “predicted interaction distance (r)” value is listed as 11.3.

Take `CCCNCCC` [dipropylamine]: in series [2] (setting [7]), the dh is given as 5.8 MPa and the dp is 6.2 MPa. Also, the dd in series [2] (setting [8]) is 14.0 MPa. For the same compound, in series [1] (setting [9]), the d is 16.3 MPa.

As for `NCCN` [ethylenediamine], in series [2] (setting [5]), the dd is 16.6 MPa, the dh is recorded as 17.0 MPa and the dp was 8.8 MPa. The e in series [1] (setting [10]) is 12.9. Besides, the m in series [1] (Table 4) is on record as 6.6 10^-30 Cm. In series [1] (Table 7, Dielectric Constant), the e is on record as 12.9. In addition, the pKa in series [1] (Table 7) is 10.1.

For the compound `CN(C)P(=O)(N(C)C)N(C)C` [hexamethylphosporamide], in series [2] (setting [5]), the dd is recorded as 18.3 MPa, the dh was 11.3 MPa and the dp was 8.6 MPa. Further, the d in series [1] (setting [6]) was 23.2 MPa. Further, in series [1] (setting [10]), the e was 30.0. Further, in series [1] (Table 4), the m was 17.6 10^-30 Cm. The e in series [1] (Table 7, Dielectric Constant) is on record as 30.0. For the same compound, the d in series [1] (Table 7, Hildebrand Parameter) is on record as 23.2 MPa. This compound also had a r in series [3] of 2.0.

In the case of `c1c[nH]cn1` [imidazole], the pKa in series [1] (Table 7) is recorded as 7.1.

As for `C1COCCN1` [morpholine], the dd in series [2] (setting [5]) was 16.0 MPa. Besides, in series [2] (setting [5]), the dh was 10.1 MPa. The dp in series [2] (setting [5]) is 11.4 MPa. Besides, the d in series [1] (setting [6]) is on record as 22.1 MPa; in series [1] (Table 7, Hildebrand Parameter), 22.1 MPa. Besides, the e in series [1] (setting [10]) is 7.3; in series [1] (Table 7, Dielectric Constant), 7.3. Further, the m in series [1] (Table 4) is 5.0 10^-30 Cm. Further, the gw in series [1] (setting [11]) was 200.0; in series [1] (Table 7, Hydrogen Bonding) it was 200.0. Besides, the r in series [3] turned out to be 4.0.

Take `C1CCNCC1` [piperidine]: the e in series [1] (Table 7, Dielectric Constant) is given as 5.8. Also, the d in series [1] (Table 7, Hildebrand Parameter) is recorded as 19.3 MPa. Also, in series [1] (Table 7, Hydrogen Bonding), the gw is 89.0.

In the case of `CCCN` [propylamine], in series [2] (setting [5]), the dd is listed as 13.9 MPa, the dh is 7.2 MPa and the dp was 9.3 MPa. Also, in series [1] (setting [10]), the e is 5.3. Besides, in series [1] (Table 4), the m is given as 4.7 10^-30 Cm. In addition, in series [1] (Table 7, Dielectric Constant), the e is recorded as 5.3. Also, the pKa in series [1] (Table 7) is 10.8.

Turning to `c1ccncc1` [pyridine], in series [2] (setting [5]), the dd was 17.6 MPa, the dh is recorded as 7.7 MPa and the dp is 10.1 MPa. The e in series [1] (setting [10]) is 12.3. In series [1] (Table 4), the m is given as 7.3 10^-30 Cm. Moreover, the gw in series [1] (setting [11]) was 80.0.

For `C1CCNC1` [pyrrolidine], the m in series [1] (Table 4) is 5.3 10^-30 Cm.

`c1ccc2ncccc2c1` [quinoline]: in series [2] (setting [5]), the dd was 19.4 MPa, the dh is listed as 7.6 MPa and the dp was 7.0 MPa. Besides, in series [1] (setting [6]), the d is recorded as 22.0 MPa. Further, the e in series [1] (setting [10]) is reported as 9.0. Besides, the m in series [1] (Table 4) was 7.6 10^-30 Cm.

Consider `CCCCN(CCCC)CCCC` [tributylamine], for which, in series [2] (setting [7]), the dh is listed as 4.0 MPa and the dp is on record as 2.8 MPa. For the same compound, the dd in series [2] (setting [8]) was 15.1 MPa. Moreover, the d in series [1] (setting [9]) is listed as 15.9 MPa. Besides, the mp in series [1] (Table 6) is recorded as 2.3 10^-30 Cm.

For the compound `CCN(CC)CC` [triethylamine], in series [2] (setting [7]), the dh is given as 1.9 MPa and the dp was 3.7 MPa. Also, the dd in series [2] (setting [8]) was 14.6 MPa. The d in series [1] (setting [9]) is reported as 15.3 MPa. For the same compound, the mp in series [1] (Table 6) is on record as 2.2 10^-30 Cm.

(Values after patent EP0563281B1, “METHOD FOR PROCESSING ELECTRICALLY CONDUCTIVE POLYANILINES IN LEWIS-BASE SOLVENTS” (MONSANTO COMPANY, priority 1990, dated 1992).)
